ChEMBL document CHEMBL1201862, “PubChem BioAssay data set” (2004)
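These data come from cells grown in 96-well plates and exposed to compound for 48 hours at five concentrations. GI50 marks 50% less growth.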 Calls of active or inactive are those of the source. Cut-off read from the data, not from the text of the source: active = GI50 up to about 1.1 µM and inactive = higher.

Experiments:
Test in all cases: NCI anticancer screen, dose series, 48 h
[1] = test system: 786-0
[2] = test system: A498
[3] = test system: A549
[4] = test system: BT-549
[5] = test system: CAKI-1
[6] = test system: CCRF-CEM
[7] = test system: COLO 205
[8] = test system: DU-145
[9] = test system: EKVX
[10] = test system: HCT-116
[11] = test system: HCT-15
[12] = test system: HL-60
[13] = test system: HOP-62
[14] = test system: HT-29
[15] = test system: Hs-578T
[16] = test system: IGROV-1
[17] = test system: K562
[18] = test system: KM12
[19] = test system: LOX IMVI
[20] = test system: M14
[21] = test system: MCF7
[22] = test system: MDA-MB-231
[23] = test system: MDA-MB-435
[24] = test system: MDA-N
[25] = test system: MOLT-4
[26] = test system: Malme-3M
[27] = test system: NCI-H226
[28] = test system: NCI-H460
[29] = test system: NCI-H522
[30] = test system: NCI/ADR-RES
[31] = test system: OVCAR-3
[32] = test system: OVCAR-4
[33] = test system: OVCAR-5
[34] = test system: OVCAR-8
[35] = test system: PC-3
[36] = test system: RPMI-8226
[37] = test system: RXF 393
[38] = test system: SF-268
[39] = test system: SF-295
[40] = test system: SF-539
[41] = test system: SK-MEL-28
[42] = test system: SK-MEL-2
[43] = test system: SK-MEL-5
[44] = test system: SK-OV-3
[45] = test system: SN12C
[46] = test system: SNB-19
[47] = test system: SNB-75
[48] = test system: SR
[49] = test system: SW-620
[50] = test system: T47D
[51] = test system: TK-10
[52] = test system: U-251
[53] = test system: UACC-257
[54] = test system: UACC-62
[55] = test system: UO-31
[56] = test system: ACHN
[57] = test system: HCC 2998
[58] = test system: HOP-92
[59] = test system: NCI-H23

## O=C(NNC(=O)c1ccccc1O)c1ccc(O)cc1
[1]
  GI50: 46.8 µM (inactive)
[2]
  GI50: > 100 µM (inactive)
[3]
  GI50: 38.8 µM (inactive)
[4]
  GI50: 40.6 µM (inactive)
[5]
  GI50: 50.9 µM (inactive)
[6]
  GI50: 70.8 µM (inactive)
[7]
  GI50: 47.8 µM (inactive)
[8]
  GI50: 76.7 µM (inactive)
[9]
  GI50: 38.3 µM (inactive)
[10]
  GI50: 33.2 µM (inactive)
[11]
  GI50: 19.2 µM
[12]
  GI50: 52.8 µM (inactive)
[13]
  GI50: 47.5 µM (inactive)
[14]
  GI50: 37.4 µM (inactive)
[15]
  GI50: > 100 µM (inactive)
[16]
  GI50: 23.9 µM (inactive)
[17]
  GI50: 84.9 µM (inactive)
[18]
  GI50: 45.3 µM (inactive)
[19]
  GI50: 31.6 µM (inactive)
[20]
  GI50: 23.7 µM (inactive)
[21]
  GI50: 58.9 µM (inactive)
[22]
  GI50: 10.2 µM (inactive)
[23]
  GI50: 69.7 µM (inactive)
[24]
  GI50: > 100 µM (inactive)
[25]
  GI50: 36.4 µM (inactive)
[26]
  GI50: 14.5 µM (inactive)
[27]
  GI50: 14.8 µM (inactive)
[28]
  GI50: 31.5 µM (inactive)
[29]
  GI50: 13.1 µM (inactive)
[30]
  GI50: 22.1 µM (inactive)
[31]
  GI50: 38.4 µM (inactive)
[32]
  GI50: 91.6 µM (inactive)
[33]
  GI50: > 100 µM (inactive)
[34]
  GI50: 21.1 µM (inactive)
[35]
  GI50: 37.6 µM (inactive)
[36]
  GI50: 81.5 µM (inactive)
[37]
  GI50: > 100 µM (inactive)
[38]
  GI50: 9.95 µM (inactive)
[39]
  GI50: 33 µM (inactive)
[40]
  GI50: 66.7 µM (inactive)
[41]
  GI50: > 100 µM (inactive)
[42]
  GI50: 22.5 µM (inactive)
[43]
  GI50: > 100 µM (inactive)
[44]
  GI50: 33.4 µM (inactive)
[45]
  GI50: > 100 µM (inactive)
[46]
  GI50: > 100 µM (inactive)
[47]
  GI50: 24.4 µM (inactive)
[48]
  GI50: 49.1 µM (inactive)
[49]
  GI50: 81.3 µM (inactive)
[50]
  GI50: > 100 µM (inactive)
[51]
  GI50: > 100 µM (inactive)
[52]
  GI50: > 100 µM (inactive)
[53]
  GI50: 89.1 µM (inactive)
[54]
  GI50: 28.1 µM (inactive)
[55]
  GI50: 42 µM (inactive)

## C=C1C(=O)O[C@H]2[C@H]3O[C@@H](C[C@@H]12)[C@](C)(O)CCCC(C)=CCC[C@H]3C
[1]
  GI50: 54.3 µM (inactive)
[3]
  GI50: 16.8 µM (inactive)
[56]
  GI50: 10.1 µM (inactive)
[4]
  GI50: 0.457 µM (active)
[5]
  GI50: 10.8 µM (inactive)
[6]
  GI50: 0.807 µM (active)
[7]
  GI50: 3.38 µM (inactive)
[8]
  GI50: 13.1 µM (inactive)
[9]
  GI50: 10.4 µM (inactive)
[57]
  GI50: 11.1 µM (inactive)
[10]
  GI50: 13.6 µM (inactive)
[11]
  GI50: 7.35 µM
[13]
  GI50: 16.7 µM (inactive)
[58]
  GI50: 1.34 µM (inactive)
[14]
  GI50: 13.5 µM (inactive)
[15]
  GI50: 3.9 µM (inactive)
[16]
  GI50: 1.67 µM (inactive)
[17]
  GI50: 6.37 µM (inactive)
[18]
  GI50: 14.1 µM (inactive)
[19]
  GI50: 14.3 µM (inactive)
[21]
  GI50: 7.26 µM (inactive)
[22]
  GI50: 11.7 µM (inactive)
[23]
  GI50: 3.86 µM (inactive)
[24]
  GI50: 16.1 µM (inactive)
[25]
  GI50: 2.08 µM (inactive)
[27]
  GI50: 18.1 µM (inactive)
[59]
  GI50: 14.5 µM (inactive)
[28]
  GI50: 5.18 µM (inactive)
[29]
  GI50: 4.36 µM (inactive)
[30]
  GI50: 8.2 µM (inactive)
[31]
  GI50: 13.9 µM (inactive)
[32]
  GI50: 16.1 µM (inactive)
[33]
  GI50: 14.6 µM (inactive)
[34]
  GI50: 5.97 µM (inactive)
[35]
  GI50: 12.2 µM (inactive)
[36]
  GI50: 3.17 µM (inactive)
[37]
  GI50: 4.91 µM (inactive)
[38]
  GI50: 8.04 µM (inactive)
[39]
  GI50: 16.5 µM (inactive)
[40]
  GI50: 10.2 µM (inactive)
[41]
  GI50: 11.5 µM (inactive)
[42]
  GI50: 15 µM (inactive)
[43]
  GI50: 10.8 µM (inactive)
[44]
  GI50: 19 µM (inactive)
[45]
  GI50: 11.9 µM (inactive)
[46]
  GI50: 16.9 µM (inactive)
[47]
  GI50: 10.5 µM (inactive)
[48]
  GI50: 28.1 µM (inactive)
[49]
  GI50: 5.13 µM (inactive)
[50]
  GI50: 19.1 µM (inactive)
[51]
  GI50: 3.24 µM (inactive)
[52]
  GI50: 14 µM (inactive)
[53]
  GI50: 10.3 µM (inactive)
[54]
  GI50: 10.2 µM (inactive)
[55]
  GI50: 11.4 µM (inactive)

## c1cn(C23C4C5C6C4C2C6C53)cn1 (stereo unspecified)
[1]
  GI50: > 100 µM (inactive)
[2]
  GI50: > 100 µM (inactive)
[3]
  GI50: > 100 µM (inactive)
[56]
  GI50: > 100 µM (inactive)
[4]
  GI50: > 100 µM (inactive)
[6]
  GI50: > 100 µM (inactive)
[7]
  GI50: > 100 µM (inactive)
[8]
  GI50: > 100 µM (inactive)
[9]
  GI50: > 100 µM (inactive)
[57]
  GI50: > 100 µM (inactive)
[10]
  GI50: > 100 µM (inactive)
[11]
  GI50: > 100 µM
[12]
  GI50: > 100 µM (inactive)
[13]
  GI50: > 100 µM (inactive)
[14]
  GI50: > 100 µM (inactive)
[15]
  GI50: > 100 µM (inactive)
[16]
  GI50: > 100 µM (inactive)
[17]
  GI50: > 100 µM (inactive)
[18]
  GI50: > 100 µM (inactive)
[19]
  GI50: > 100 µM (inactive)
[20]
  GI50: > 100 µM (inactive)
[21]
  GI50: > 100 µM (inactive)
[22]
  GI50: > 100 µM (inactive)
[23]
  GI50: > 100 µM (inactive)
[24]
  GI50: > 100 µM (inactive)
[25]
  GI50: > 100 µM (inactive)
[27]
  GI50: > 100 µM (inactive)
[59]
  GI50: > 100 µM (inactive)
[28]
  GI50: > 100 µM (inactive)
[29]
  GI50: > 100 µM (inactive)
[30]
  GI50: > 100 µM (inactive)
[33]
  GI50: > 100 µM (inactive)
[34]
  GI50: > 100 µM (inactive)
[35]
  GI50: > 100 µM (inactive)
[36]
  GI50: > 100 µM (inactive)
[38]
  GI50: > 100 µM (inactive)
[39]
  GI50: > 100 µM (inactive)
[40]
  GI50: > 100 µM (inactive)
[41]
  GI50: > 100 µM (inactive)
[42]
  GI50: > 100 µM (inactive)
[43]
  GI50: > 100 µM (inactive)
[44]
  GI50: > 100 µM (inactive)
[45]
  GI50: > 100 µM (inactive)
[46]
  GI50: > 100 µM (inactive)
[47]
  GI50: > 100 µM (inactive)
[48]
  GI50: > 100 µM (inactive)
[49]
  GI50: > 100 µM (inactive)
[50]
  GI50: > 100 µM (inactive)
[51]
  GI50: > 100 µM (inactive)
[52]
  GI50: > 100 µM (inactive)
[53]
  GI50: > 100 µM (inactive)
